# Patent US11834414B2, “1-methyl-4-[(4-phenylphenyl)sulfonylmethyl]cyclohexyanol and 1-methyl-4-[[4-(2-pyridyl)phenyl]sulfonylmethyl]cyclohexanol compounds and their therapeutic use” (Modern Biosciences Limited, priority 2018, dated 2023)
# Experiments:
# Rat hepatocyte stability = assay type: in vitro ADME; settings: rat, pooled rat hepatocytes, 60 minute incubation; for hepatocyte CLint at 1 μM: read-out: Rat Clint (μL/min/million cells); for half-life at 1 μM: read-out: Rat t1/2
# Procedure, shortened: (§1)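 Compounds (1 μM final, 0.1% DMSO, 0.9% acetonitrile) were incubated in duplicate with pooled rat or human hepatocytes at 37° C, sampled at 0–60 min and quenched with methanol. Remaining parent was measured by LC-MS/MS. Elimination rate constant came from the ln(concentration)–time slope, giving t1/2 and CLint scaled to hepatocyte concentration.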
# CYP2D6 = CYP2D6 (Homo sapiens (Human), UniProt P10635); assay: Human Cytochrome P450 Inhibition Assay (Bactosomes); assay type: in vitro ADME; settings: recombinant Bactosomes, 10 minutes, 37° C.
# CYP2C19 = CYP2C19 (Homo sapiens (Human), UniProt P33261); assay: as above; assay type: in vitro ADME; settings: recombinant Bactosomes, 10 minutes, 37° C.
# [1] = Human hepatocyte stability; assay type: in vitro ADME; settings: human, pooled human hepatocytes, human hepatocytes, 1 μM, 60 minute incubation; for hepatocyte CLint at 1 μM: read-out: Human Clint (uL/min/million cells); for half-life at 1 μM: read-out: Human t1/2
# Procedure, shortened: as §1
# human hepatocytes = assay: Human hepatocyte stability; assay type: in vitro ADME; settings: hepatocyte stability, compared to the reference compounds
# Procedure, shortened: as §1
# hERG ion channel = hERG ion channel (Homo sapiens (Human), UniProt Q12809); assay: hERG Ion Channel Assay; assay type: cell-based; settings: for hERG cardiac safety profile (in words): compared to reference compounds such as ABD599 and ABD899; for IC50: hERG ion channel activity, hERG-CHO cells
# Procedure: When the ability of hERG to conduct electrical current across the cell membrane is inhibited or compromised, it can result in a potentially fatal disorder called long QT syndrome. This association between hERG and long QT syndrome has made hERG inhibition an important anti-target that must be avoided during drug development.
# The activity of the compounds against the hERG ion channel was tested using two approaches: a binding assay and an automated patch-clamp, Q-patch method using stably transfected Chinese Hamster Ovary cells (hERG-CHO). hERG-CHO cells were cultured in F-12 Kaighn's Nutrient Mixture medium (Invitrogen)+10% FBS at 37° C. for 1-3 days. Cells were kept at 30° C. for 24 to 48 hours prior to patch clamping in order to increase the hERG current amplitude. Subsequently, the cells were harvested by trypsinisation, and kept in Serum Free Medium (SFM) in the Q-patch cell preparation state for up to 6 hours at room temperature before being washed and re-suspended in extracellular solution and applied to the patch clamp sites for data recording.
# Patch-clamp voltage protocol: After whole cell configuration was achieved, the cell was held at −80 mV. A 50 millisecond pulse to −40 mV was delivered to measure the leaking current, which was subtracted from the tail current on-line. Then the cell was depolarized to +20 mV for 2 seconds, followed by a one second pulse to −40 mV to reveal hERG tail current. This paradigm was delivered once every 5 seconds to monitor the current amplitude.
# Extracellular solution: 137 mM NaCl, 4 mM KCl, 1.8 mM CaCl2), 1 mM MgCl2, 10 mM D(+)-glucose, 10 mM HEPES buffer (pH adjusted to 7.4 with NaOH).
# After the whole cell configuration was achieved, the extracellular solution (control) was applied first and the cell was stabilized for 2 minutes in extracellular solution. The test compound was then applied from low concentrations to high concentrations cumulatively. The cell was incubated with each test concentration for 5 minutes. During each incubation, the cell was repetitively stimulated using the voltage protocol described above, and the tail current amplitude was continuously monitored.
# Acceptance Criteria: • (1) Peak tail current >100 pA in control. • (2) Initial run-down <30% and the run-down stops before first application of the test compound. • (3) Leak currents <50% of the control peak tail currents at any time. • (4) rs<20 MΩ throughout the experiment.
# The degree of inhibition (%) was obtained by measuring the tail current amplitude, induced by a one second test pulse to −40 mV after a two second pulse to +20 mV, before and after incubation with the test compound. The difference in current was normalized to control and multiplied by 100 in order to obtain the percent inhibition.
# Concentration (log) response curves were fitted to a logistic equation (three parameters assuming complete block of the current at very high test compound concentrations) to generate estimates of the 50% inhibitory concentration (IC50). The concentration-response relationship of each compound was constructed from the percentage reductions of current amplitude by sequential concentrations.
# CYP2C9 = CYP2C9 (Homo sapiens (Human), UniProt P11712); assay: Human Cytochrome P450 Inhibition Assay (Bactosomes); assay type: in vitro ADME; settings: recombinant Bactosomes, 10 minutes, 37° C.
# Chain of CYP2C9 (P11712 whole entry): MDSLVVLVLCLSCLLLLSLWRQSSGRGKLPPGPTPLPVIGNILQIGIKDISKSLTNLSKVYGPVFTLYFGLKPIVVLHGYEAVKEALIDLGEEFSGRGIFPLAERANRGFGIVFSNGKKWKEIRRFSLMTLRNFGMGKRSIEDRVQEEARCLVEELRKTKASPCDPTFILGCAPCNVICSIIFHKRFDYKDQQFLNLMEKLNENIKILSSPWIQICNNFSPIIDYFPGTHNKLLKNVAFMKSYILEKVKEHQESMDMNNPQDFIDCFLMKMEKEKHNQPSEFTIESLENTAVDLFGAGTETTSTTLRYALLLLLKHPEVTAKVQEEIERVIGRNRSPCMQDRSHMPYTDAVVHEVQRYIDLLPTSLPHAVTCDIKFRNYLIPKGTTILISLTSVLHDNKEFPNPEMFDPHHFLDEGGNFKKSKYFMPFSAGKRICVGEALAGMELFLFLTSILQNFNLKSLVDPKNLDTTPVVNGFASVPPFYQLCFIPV
# Chain of CYP2C19 (P33261 whole entry): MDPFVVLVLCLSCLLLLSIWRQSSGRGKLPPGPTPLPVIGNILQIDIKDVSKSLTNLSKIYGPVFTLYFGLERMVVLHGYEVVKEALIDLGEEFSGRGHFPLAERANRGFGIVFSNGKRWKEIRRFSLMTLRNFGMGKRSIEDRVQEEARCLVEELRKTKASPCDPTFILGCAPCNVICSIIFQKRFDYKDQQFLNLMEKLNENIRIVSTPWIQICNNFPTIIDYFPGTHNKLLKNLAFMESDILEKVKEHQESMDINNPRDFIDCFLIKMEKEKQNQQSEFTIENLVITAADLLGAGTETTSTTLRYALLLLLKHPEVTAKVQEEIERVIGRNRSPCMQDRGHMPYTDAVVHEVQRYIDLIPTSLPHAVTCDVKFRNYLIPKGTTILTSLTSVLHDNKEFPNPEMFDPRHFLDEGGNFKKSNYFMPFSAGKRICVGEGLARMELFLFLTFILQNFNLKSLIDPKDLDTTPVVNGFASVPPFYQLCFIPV
# Chain of CYP2D6 (P10635 whole entry): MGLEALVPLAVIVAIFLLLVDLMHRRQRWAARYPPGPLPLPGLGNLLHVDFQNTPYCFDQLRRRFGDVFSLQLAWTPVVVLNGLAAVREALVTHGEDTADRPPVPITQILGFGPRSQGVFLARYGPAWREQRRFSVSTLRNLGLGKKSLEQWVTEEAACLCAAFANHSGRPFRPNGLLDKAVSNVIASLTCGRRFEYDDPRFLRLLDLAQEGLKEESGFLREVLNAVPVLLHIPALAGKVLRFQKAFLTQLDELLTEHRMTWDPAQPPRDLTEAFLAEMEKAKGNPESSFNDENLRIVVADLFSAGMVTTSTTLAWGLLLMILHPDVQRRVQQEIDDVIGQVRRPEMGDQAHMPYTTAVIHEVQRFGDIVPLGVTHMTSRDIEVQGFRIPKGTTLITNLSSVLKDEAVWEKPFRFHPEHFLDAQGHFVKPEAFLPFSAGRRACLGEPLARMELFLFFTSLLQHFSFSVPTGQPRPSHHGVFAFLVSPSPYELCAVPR
# Chain of hERG ion channel (Q12809 whole entry): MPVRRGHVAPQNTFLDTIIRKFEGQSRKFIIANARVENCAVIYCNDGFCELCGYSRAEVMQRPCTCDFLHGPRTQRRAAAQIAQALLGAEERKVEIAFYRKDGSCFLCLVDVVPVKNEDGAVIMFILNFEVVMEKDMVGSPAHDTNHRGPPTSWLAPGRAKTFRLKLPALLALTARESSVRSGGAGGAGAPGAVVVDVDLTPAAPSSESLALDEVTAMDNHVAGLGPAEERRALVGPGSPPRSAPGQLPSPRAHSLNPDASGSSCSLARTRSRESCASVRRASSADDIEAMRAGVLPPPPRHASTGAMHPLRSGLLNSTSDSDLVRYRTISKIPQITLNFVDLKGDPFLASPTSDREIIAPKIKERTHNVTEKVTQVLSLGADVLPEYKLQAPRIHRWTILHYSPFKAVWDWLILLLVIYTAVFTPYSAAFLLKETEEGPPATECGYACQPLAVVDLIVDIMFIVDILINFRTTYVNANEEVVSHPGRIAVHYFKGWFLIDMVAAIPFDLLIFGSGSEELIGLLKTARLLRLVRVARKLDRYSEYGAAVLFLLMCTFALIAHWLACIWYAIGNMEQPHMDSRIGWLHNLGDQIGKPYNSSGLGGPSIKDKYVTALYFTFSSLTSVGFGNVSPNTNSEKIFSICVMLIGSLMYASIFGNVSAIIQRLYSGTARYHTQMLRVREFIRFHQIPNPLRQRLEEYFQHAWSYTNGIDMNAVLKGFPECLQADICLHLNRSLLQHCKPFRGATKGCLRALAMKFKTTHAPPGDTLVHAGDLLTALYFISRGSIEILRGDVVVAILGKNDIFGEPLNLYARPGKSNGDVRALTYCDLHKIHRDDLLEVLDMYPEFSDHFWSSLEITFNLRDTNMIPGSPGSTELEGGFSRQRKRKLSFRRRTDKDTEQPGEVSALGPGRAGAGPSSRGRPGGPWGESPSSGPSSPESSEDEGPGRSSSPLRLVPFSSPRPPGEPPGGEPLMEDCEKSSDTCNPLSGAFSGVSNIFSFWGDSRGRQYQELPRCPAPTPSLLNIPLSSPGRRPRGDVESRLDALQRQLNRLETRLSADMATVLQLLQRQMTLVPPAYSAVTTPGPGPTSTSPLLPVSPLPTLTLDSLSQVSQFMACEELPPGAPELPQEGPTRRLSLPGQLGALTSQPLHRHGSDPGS
SMILES,hepatocyte CLint at 1 μM (Rat hepatocyte stability) [µL/min/1e6 cells],half-life at 1 μM (Rat hepatocyte stability) [min],IC50 (CYP2D6) [µM],IC50 (CYP2C19) [µM],hepatocyte CLint at 1 μM [1] [µL/min/1e6 cells],half-life at 1 μM [1] [min],metabolic stability (in words) (human hepatocytes),hERG cardiac safety profile (in words) (hERG ion channel),IC50 (hERG ion channel) [µM],IC50 (CYP2C9) [µM]
"C[C@]1(O)CC[C@@H](CS(=O)(=O)c2ccc(-c3ccc(C#N)cc3F)cc2C(F)(F)F)CC1 [CHMSA-02-A, 2-fluoro-4′-(((cis-4-hydroxy-4-methylcyclohexyl)methyl)sulfonyl)-3′-(trifluoromethyl)-[1,1′-biphenyl]-4-carbonitrile]",102,13,> 50,> 50,< 3.3,> 412,exceptionally good stability,particularly positive profile,> 100,> 50
"C[C@]1(O)CC[C@@H](CS(=O)(=O)c2ccc(-c3ncc(F)cc3F)c(F)c2)CC1 [CHMSA-03-A, cis-4-(((4-(3,5-difluoropyridin-2-yl)-3-fluorophenyl)sulfonyl)methyl)-1-methylcyclohexan-1-ol]",14.4,91.2,> 50,> 50,< 3,> 460,exceptionally good stability,particularly positive profile,> 100,14.7
"C[C@]1(O)CC[C@@H](CS(=O)(=O)c2ccc(-c3ccc(C#N)cc3F)cc2)CC1 [CHMSA-01-A, 2-fluoro-4′-(((cis-4-hydroxy-4-methylcyclohexyl)methyl)sulfonyl)-[1,1′-biphenyl]-4-carbonitrile]",12.4,106,> 50,> 50,3.7,355,,,24,39.4
"C[C@]1(O)CC[C@H](NS(=O)(=O)c2ccc(-c3ccc(Cl)cc3C#N)cc2)CC1 [HMC-C-01-A, reference compound]",188,7,16.6,> 25,7.6,154,,,,21
